Laboratory results as given in patent US8993574B2, “Pyrrole antifungal agents” (F2G Ltd, priority 2008, dated 2015).
Converted amounts (≈) assume the structure as drawn.

Legend:
Type in all cases: cell-based
Aspergillus terreus AT49 [1] = experiment: MIC, RPMI medium; details: for MIC: Aspergillus terreus, AT49, MIC banded into grades, read-out: MIC grade, A. terreus 49
How it was run: (§1)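 Broth microdilution in RPMI medium with 2% glucose and 0.135 M MOPS (pH 7.0); compounds as doubling dilutions over 50-0.05 mg/L, inoculum 1−2×10^4 cfu/mL. Plates incubated 24-48 h at 35° C; OD 485 nm read, MIC being lowest concentration giving >80% growth inhibition versus drug-free control.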

[2] = tested on: Aspergillus fumigatus AF210; experiment: MIC, RPMI medium; details: for MIC: Aspergillus fumigatus, AF210, MIC banded into grades, read-out: MIC grade, A. fumigatus 210
How it was run: as §1

Aspergillus terreus AT4 [3] = experiment: MIC, RPMI medium; details: for MIC: Aspergillus terreus, AT4, MIC banded into grades, read-out: MIC grade, A. terreus
How it was run: as §1

[4] = tested on: Aspergillus fumigatus AF293; experiment: MIC, RPMI medium; details: for MIC: Aspergillus fumigatus, AF293, MIC banded into grades, read-out: MIC grade, A. fumigatus
How it was run: as §1

Aspergillus flavus [5] = experiment: MIC, RPMI medium; details: MIC banded into grades; for MIC: Aspergillus flavus, read-out: MIC grade, A. flavus
How it was run: as §1

Aspergillus niger [6] = experiment: MIC, RPMI medium; details: MIC banded into grades; for MIC: Aspergillus niger, read-out: MIC grade, A. niger
How it was run: as §1

Aspergillus terreus AT49 [7] = experiment: MIC, YAG medium; details: 24 h at 35° C, MIC banded into grades; for MIC: Aspergillus terreus, read-out: MIC grade, A. terreus 49
How it was run: (§2)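 Spores harvested from 5-day Sabouraud agar cultures were inoculated at 1−2×10^4 cfu/mL into YAG medium (1% glucose, 1% ammonium chloride, 0.5% yeast extract) over doubling drug dilutions spanning 50-0.05 mg/L, or 0.5-0.0005 mg/L on repeat. After 24 h at 35° C, OD485 was read. MIC is the lowest concentration inhibiting growth >70% versus drug-free control, in mg/L.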

[8] = tested on: Aspergillus fumigatus AF210; experiment: MIC, YAG medium; details: 24 h at 35° C, MIC banded into grades; for MIC: Aspergillus fumigatus, read-out: MIC grade, A. fumigatus 210
How it was run: as §2

Aspergillus terreus AT4 [9] = experiment: MIC, YAG medium; details: 24 h at 35° C, MIC banded into grades; for MIC: Aspergillus terreus, read-out: MIC grade, A. terreus
How it was run: as §2

[10] = tested on: Aspergillus fumigatus AF293; experiment: MIC, YAG medium; details: 24 h at 35° C, MIC banded into grades; for MIC: Aspergillus fumigatus, read-out: MIC grade, A. fumigatus
How it was run: as §2

Aspergillus flavus [11] = experiment: MIC, YAG medium; details: 24 h at 35° C, MIC banded into grades; for MIC: Aspergillus flavus, 24 h, read-out: MIC grade, A. flavus
How it was run: as §2

Aspergillus niger [12] = experiment: MIC, YAG medium; details: 24 h at 35° C, MIC banded into grades; for MIC: Aspergillus niger, read-out: MIC grade, A. niger
How it was run: as §2

SMILES	MIC (Aspergillus terreus AT49 [1])	MIC [2]	MIC (Aspergillus terreus AT4 [3])	MIC [4]	MIC (Aspergillus flavus [5])	MIC (Aspergillus niger [6])	MIC (Aspergillus terreus AT49 [7])	MIC [8]	MIC (Aspergillus terreus AT4 [9])	MIC [10]	MIC (Aspergillus flavus [11])	MIC (Aspergillus niger [12])	further results
Cc1cc(C)nc(N2CCN(c3ccc(NC(=O)C(=O)c4ccc(C)n4-c4ccccc4)cc3)CC2)c1 [Example 3, N-{4-[4-(4,6-Dimethyl-pyridin-2-yl)-piperazin-1-yl]-phenyl}-2-(5-methyl-1-phenyl-1H-pyrrol-2-yl)-2-oxo-acetamide]	1 to 10 µg/mL (≈ 2.03 to 20.3 µM)	> 10 µg/mL	1 to 10 µg/mL (≈ 2.03 to 20.3 µM)	> 10 µg/mL	> 10 µg/mL	> 10 µg/mL	< 1 µg/mL	1 to 10 µg/mL (≈ 2.03 to 20.3 µM)	< 1 µg/mL	> 10 µg/mL	1 to 10 µg/mL (≈ 2.03 to 20.3 µM)	> 10 µg/mL	–
Cc1cc(-c2ccccc2)c(C(=O)C(=O)Nc2cccc3c2CCO3)n1C [Example 23, N-(2,3-Dihydro-benzofuran-4-yl)-2-(1,5-dimethyl-3-phenyl-1H-pyrrol-2-yl)-2-oxo-acetamide]	< 1 µg/mL	1 to 10 µg/mL (≈ 2.77 to 27.7 µM)	< 1 µg/mL	1 to 10 µg/mL (≈ 2.77 to 27.7 µM)	< 1 µg/mL	1 to 10 µg/mL (≈ 2.77 to 27.7 µM)	< 1 µg/mL	1 to 10 µg/mL (≈ 2.77 to 27.7 µM)	< 1 µg/mL	< 1 µg/mL	< 1 µg/mL	< 1 µg/mL	–
COCCn1c(C)cc(-c2ccccc2)c1C(=O)C(=O)Nc1ccc(N2CCN(c3cc(C)cc(C)n3)CC2)cc1Cl [Example 26, N-{2-Chloro-4-[4-(4,6-dimethyl-pyridin-2-yl)-piperazin-1-yl]-phenyl}-2-[1-(2-methoxy-ethyl)-5-methyl-3-phenyl-1H-pyrrol-2-yl]-2-oxo-acetamide]	> 10 µg/mL	< 1 µg/mL	> 10 µg/mL	< 1 µg/mL	> 10 µg/mL	< 1 µg/mL	< 1 µg/mL	< 1 µg/mL	< 1 µg/mL	< 1 µg/mL	–	< 1 µg/mL	MIC grade, A. flavus (Aspergillus flavus [11]): 1 (a grade of 1 represents an MIC of greater than 10 mg/L)
CCc1cc(-c2ccccc2)c(C(=O)C(=O)Nc2ccc(N3CCN(c4cc(C)cc(C)n4)CC3)cc2)n1CCOC [Example 54, N-{4-[4-(4,6-Dimethyl-pyridin-2-yl)-piperazin-1-yl]-phenyl}-2-[5-ethyl-1-(2-methoxy-ethyl)-3-phenyl-1H-pyrrol-2-yl]-2-oxo-acetamide]	> 10 µg/mL	1 to 10 µg/mL (≈ 1.77 to 17.7 µM)	> 10 µg/mL	< 1 µg/mL	> 10 µg/mL	1 to 10 µg/mL (≈ 1.77 to 17.7 µM)	< 1 µg/mL	< 1 µg/mL	1 to 10 µg/mL (≈ 1.77 to 17.7 µM)	< 1 µg/mL	1 to 10 µg/mL (≈ 1.77 to 17.7 µM)	1 to 10 µg/mL (≈ 1.77 to 17.7 µM)	–
COCCn1c(C)cc(-c2ccccc2)c1C(=O)C(=O)Nc1ccc(N2CCN(c3cc(C)cc(C)n3)CC2)c(Cl)c1 [Example 24, N-{3-Chloro-4-[4-(4,6-dimethyl-pyridin-2-yl)-piperazin-1-yl]-phenyl}-2-[1-(2-methoxy-ethyl)-5-methyl-3-phenyl-1H-pyrrol-2-yl]-2-oxo-acetamide]	> 10 µg/mL	< 1 µg/mL	1 to 10 µg/mL (≈ 1.71 to 17.1 µM)	< 1 µg/mL	1 to 10 µg/mL (≈ 1.71 to 17.1 µM)	< 1 µg/mL	< 1 µg/mL	< 1 µg/mL	< 1 µg/mL	< 1 µg/mL	< 1 µg/mL	< 1 µg/mL	–
CCc1cc(-c2ccccc2)c(C(=O)C(=O)Nc2ccc(N3CCN(c4cc(C)cc(C)n4)CC3)cc2)n1C [Example 53, N-{4-[4-(4,6-Dimethyl-pyridin-2-yl)-piperazin-1-yl]-phenyl}-2-(5-ethyl-1-methyl-3-phenyl-1H-pyrrol-2-yl)-2-oxo-acetamide]	< 1 µg/mL	< 1 µg/mL	< 1 µg/mL	< 1 µg/mL	< 1 µg/mL	< 1 µg/mL	< 1 µg/mL	< 1 µg/mL	< 1 µg/mL	< 1 µg/mL	< 1 µg/mL	< 1 µg/mL	–
COC(=O)Cn1cc(-c2ccccc2)cc1C(=O)C(=O)Nc1ccc(N2CCN(c3cc(C)cc(C)n3)CC2)cc1 [Example 122, (2-{4-[4-(4,6-Dimethyl-pyridin-2-yl)-piperazin-1-yl]-phenylaminooxalyl}-4-phenyl-pyrrol-1-yl)-acetic acid methyl ester]	–	–	–	–	–	–	–	–	–	–	–	–	MIC grade, A. terreus 49 (Aspergillus terreus AT49 [1]; MIC banded into grades): 1 (a grade of 1 represents an MIC of greater than 10 mg/L); MIC grade, A. fumigatus 210 ([2]; MIC banded into grades): 1 (a grade of 1 represents an MIC of greater than 10 mg/L); MIC grade, A. terreus (Aspergillus terreus AT4 [3]; MIC banded into grades): 1 (a grade of 1 represents an MIC of greater than 10 mg/L); MIC grade, A. fumigatus ([4]; MIC banded into grades): 1 (a grade of 1 represents an MIC of greater than 10 mg/L); MIC grade, A. flavus (Aspergillus flavus [5]): 1 (a grade of 1 represents an MIC of greater than 10 mg/L); MIC grade, A. niger (Aspergillus niger [6]): 2 (A grade of 2 represents an MIC of from 1 to 10 mg/L); MIC grade, A. terreus 49 (Aspergillus terreus AT49 [7]): 1 (a grade of 1 represents an MIC of greater than 10 mg/L); MIC grade, A. fumigatus 210 [8]: 2 (A grade of 2 represents an MIC of from 1 to 10 mg/L); MIC grade, A. terreus (Aspergillus terreus AT4 [9]): 1 (a grade of 1 represents an MIC of greater than 10 mg/L); MIC grade, A. fumigatus [10]: 3 (A grade of 3 represents an MIC of less than 1 mg/L); MIC grade, A. flavus (Aspergillus flavus [11]): 1 (a grade of 1 represents an MIC of greater than 10 mg/L); MIC grade, A. niger (Aspergillus niger [12]): 2 (A grade of 2 represents an MIC of from 1 to 10 mg/L)

More lines, main results first:

MIC (Aspergillus terreus AT49 [1])	MIC [2]	MIC (Aspergillus terreus AT4 [3])	MIC [4]	MIC (Aspergillus flavus [5])	MIC (Aspergillus niger [6])	MIC (Aspergillus terreus AT49 [7])	MIC [8]	MIC (Aspergillus terreus AT4 [9])	MIC [10]	MIC (Aspergillus flavus [11])	MIC (Aspergillus niger [12])	SMILES	further results
< 1 µg/mL	< 1 µg/mL	< 1 µg/mL	< 1 µg/mL	< 1 µg/mL	< 1 µg/mL	< 1 µg/mL	< 1 µg/mL	< 1 µg/mL	< 1 µg/mL	< 1 µg/mL	< 1 µg/mL	Cc1cc(-c2ccccc2)c(C(=O)C(=O)Nc2ccc(N3CCCCC3)cc2F)n1C [Example 106, 2-(1,5-Dimethyl-3-phenyl-1H-pyrrol-2-yl)-N-(2-fluoro-4-piperidin-1-yl-phenyl)-2-oxo-acetamide]	–
< 1 µg/mL	< 1 µg/mL	< 1 µg/mL	< 1 µg/mL	< 1 µg/mL	< 1 µg/mL	< 1 µg/mL	< 1 µg/mL	< 1 µg/mL	< 1 µg/mL	< 1 µg/mL	< 1 µg/mL	Cc1cc(-c2ccccc2)c(C(=O)C(=O)Nc2ccc(N3CCCCC3)cc2)n1C [Example 143, 2-(1,5-Dimethyl-3-phenyl-1H-pyrrol-2-yl)-2-oxo-N-(4-piperidin-1-yl-phenyl)-acetamide]	–
< 1 µg/mL	< 1 µg/mL	< 1 µg/mL	< 1 µg/mL	> 10 µg/mL	< 1 µg/mL	< 1 µg/mL	< 1 µg/mL	< 1 µg/mL	< 1 µg/mL	< 1 µg/mL	< 1 µg/mL	CCOCn1c(C)cc(-c2ccccc2)c1C(=O)C(=O)Nc1ccc(N2CCN(c3cc(C)cc(C)n3)CC2)cc1 [Example 132, N-{4-[4-(4,6-Dimethyl-pyridin-2-yl)-piperazin-1-yl]-phenyl}-2-(1-ethoxymethyl-5-methyl-3-phenyl-1H-pyrrol-2-yl)-2-oxo-acetamide]	–
< 1 µg/mL	< 1 µg/mL	< 1 µg/mL	< 1 µg/mL	< 1 µg/mL	< 1 µg/mL	< 1 µg/mL	< 1 µg/mL	< 1 µg/mL	< 1 µg/mL	< 1 µg/mL	< 1 µg/mL	Cc1cc(-c2ccccc2)c(C(=O)C(=O)Nc2ccc(N3CCOCC3)cc2)n1C [Example 154, 2-(1,5-Dimethyl-3-phenyl-1H-pyrrol-2-yl)-N-(4-morpholin-4-yl-phenyl)-2-oxo-acetamide]	–
